Laboratory results: ChEMBL document CHEMBL1156967 (Bioorg Med Chem Lett, 2010)

Tests used:
[1] = molecular target: Mitogen-activated protein kinase 14 (Homo sapiens, UniProt Q16539); experiment: Inhibition of p38alpha assessed as gamma-[33P]ATP incorporation by scintillation counting
[2] = system: Rattus norvegicus; experiment: Antiinflammatory activity in Lewis rat plasma assessed as reduction in LPS-stimulated TNFalpha accumulation at 5 mg/kg, ig administered 4 hrs before LPS challenge measured after […] by ELISA; format: functional; settings: po, route intragastric
[3] = molecular target: Mitogen-activated protein kinase 11 (Homo sapiens, UniProt Q15759); experiment: Inhibition of p38beta assessed as gamma-[33P]ATP incorporation by scintillation counting
[4] = system: Rattus norvegicus; experiment: Antiinflammatory activity in Lewis rat assessed as reduction in LPS-stimulated TNFalpha accumulation at 1 mg/kg, ig administered 4 hrs before LPS challenge measured after […] by ELISA; format: functional; settings: po, route intragastric
[5] = Half life in human liver microsomes; format: ADME, Microsome
[6] = system: Mus musculus; experiment: Antiarthritic activity against collagen-induced arthritis in DBA/1 mouse chronic CIA model assessed as incidence of arthritis at 30 mg/kg, po after 21 days; format: functional
[7] = molecular target: hERG (KCNH2) (Homo sapiens, UniProt Q12809); experiment: Displacement of dofetilide from human ERG at 10 uM; settings: probe dofetilide
[8] = Intrinsic clearance in human liver microsomes; format: ADME, Microsome
[9] = system: Rattus norvegicus; experiment: Antiinflammatory activity in Lewis rat plasma assessed as reduction in LPS-stimulated TNFalpha accumulation at 20 mg/kg, ig administered 4 hrs before LPS challenge measured after […] by ELISA; format: functional; settings: po, route intragastric
[10] = Selectivity ratio of IC50 for p38 beta to IC50 for p38alpha
[11] = system: Blood; experiment: Antiinflammatory activity against LPS-induced TNFalpha production in human whole blood treated 1 hr before LPS challenge measured after 4 hrs by ELISA; format: functional, tissue-based
[12] = molecular target: Voltage-gated inwardly rectifying potassium channel KCNH2 (Homo sapiens, UniProt Q12809); experiment: Inhibition of human ERG by patch clamp technique
[13] = Half life in dog at 2.5 mg/kg, iv; format: ADME, organism-based, Canis lupus familiaris; parameters: dose 2.5 mg/kg, route intravenous; settings: in vivo
[14] = Bioavailability in rat at 5 mg/kg, iv; format: ADME, organism-based; settings: in vivo
[15] = Half life in rat at 5 mg/kg, iv; format: ADME, organism-based; parameters: dose 5 mg/kg, route intravenous; settings: in vivo
[16] = Volume of distribution in rat at 5 mg/kg, iv; format: ADME, organism-based; parameters: dose 5 mg/kg, route intravenous; settings: in vivo
[17] = Clearance in rat at 5 mg/kg, iv; format: ADME, organism-based; parameters: dose 5 mg/kg, route intravenous; settings: in vivo
[18] = Volume of distribution in dog at 2.5 mg/kg, iv; format: ADME, organism-based, Canis lupus familiaris; parameters: dose 2.5 mg/kg, route intravenous; settings: in vivo
[19] = Clearance in dog at 2.5 mg/kg, iv; format: ADME, organism-based, Canis lupus familiaris; parameters: dose 2.5 mg/kg, route intravenous; settings: in vivo
[20] = Bioavailability in dog at 2.5 mg/kg, iv; format: ADME, organism-based, Canis lupus familiaris; settings: in vivo

Mitogen-activated protein kinase 14, sequence (Q16539 whole entry): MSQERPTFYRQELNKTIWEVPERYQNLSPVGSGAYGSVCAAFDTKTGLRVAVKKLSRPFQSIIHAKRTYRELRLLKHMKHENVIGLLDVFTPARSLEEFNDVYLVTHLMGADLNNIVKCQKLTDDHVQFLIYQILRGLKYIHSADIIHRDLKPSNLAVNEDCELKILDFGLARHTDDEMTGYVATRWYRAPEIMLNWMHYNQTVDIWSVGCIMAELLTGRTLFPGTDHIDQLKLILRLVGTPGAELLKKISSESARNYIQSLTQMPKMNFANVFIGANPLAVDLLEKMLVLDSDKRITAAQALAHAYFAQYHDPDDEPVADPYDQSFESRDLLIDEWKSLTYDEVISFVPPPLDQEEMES
Mitogen-activated protein kinase 11, sequence (Q15759 whole entry): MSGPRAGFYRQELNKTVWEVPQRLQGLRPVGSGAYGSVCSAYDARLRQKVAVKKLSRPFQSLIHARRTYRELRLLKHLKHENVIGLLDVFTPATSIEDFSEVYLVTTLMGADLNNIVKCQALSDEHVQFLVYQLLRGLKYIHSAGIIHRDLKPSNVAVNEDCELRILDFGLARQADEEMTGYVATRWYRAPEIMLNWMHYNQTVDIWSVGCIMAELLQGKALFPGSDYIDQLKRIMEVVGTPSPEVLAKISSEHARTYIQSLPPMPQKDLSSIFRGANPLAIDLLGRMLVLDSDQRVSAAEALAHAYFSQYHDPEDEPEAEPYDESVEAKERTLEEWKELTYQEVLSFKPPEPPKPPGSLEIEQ
hERG (KCNH2), sequence (Q12809 whole entry): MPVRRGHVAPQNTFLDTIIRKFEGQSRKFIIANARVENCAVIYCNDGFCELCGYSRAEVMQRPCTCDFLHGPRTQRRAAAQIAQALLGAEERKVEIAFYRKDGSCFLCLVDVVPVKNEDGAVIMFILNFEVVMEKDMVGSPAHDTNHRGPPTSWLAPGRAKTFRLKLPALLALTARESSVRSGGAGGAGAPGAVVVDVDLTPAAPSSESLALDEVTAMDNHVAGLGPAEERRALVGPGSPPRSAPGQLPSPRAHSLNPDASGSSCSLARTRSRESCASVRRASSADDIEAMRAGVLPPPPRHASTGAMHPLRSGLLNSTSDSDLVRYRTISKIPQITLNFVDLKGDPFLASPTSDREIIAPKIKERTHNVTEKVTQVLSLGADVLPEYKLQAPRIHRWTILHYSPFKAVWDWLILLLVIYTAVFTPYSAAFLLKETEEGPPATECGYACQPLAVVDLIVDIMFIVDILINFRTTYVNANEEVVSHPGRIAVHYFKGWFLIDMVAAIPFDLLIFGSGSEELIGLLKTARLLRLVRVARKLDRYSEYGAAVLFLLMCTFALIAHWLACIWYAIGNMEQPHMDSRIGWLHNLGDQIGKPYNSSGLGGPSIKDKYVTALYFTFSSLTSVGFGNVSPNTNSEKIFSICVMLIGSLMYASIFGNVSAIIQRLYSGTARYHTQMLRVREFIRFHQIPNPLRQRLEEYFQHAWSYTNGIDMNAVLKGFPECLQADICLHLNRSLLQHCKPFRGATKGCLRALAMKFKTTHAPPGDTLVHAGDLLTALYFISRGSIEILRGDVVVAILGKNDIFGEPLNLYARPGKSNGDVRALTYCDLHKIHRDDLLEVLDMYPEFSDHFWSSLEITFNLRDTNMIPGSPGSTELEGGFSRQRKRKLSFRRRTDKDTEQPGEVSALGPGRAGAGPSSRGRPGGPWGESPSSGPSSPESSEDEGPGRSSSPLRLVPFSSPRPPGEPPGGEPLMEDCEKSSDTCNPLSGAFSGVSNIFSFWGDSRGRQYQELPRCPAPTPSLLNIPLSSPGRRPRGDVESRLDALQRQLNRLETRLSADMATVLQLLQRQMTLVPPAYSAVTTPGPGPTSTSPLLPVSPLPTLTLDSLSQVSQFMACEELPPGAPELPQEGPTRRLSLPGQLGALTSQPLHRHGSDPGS
Voltage-gated inwardly rectifying potassium channel KCNH2, sequence (Q12809 whole entry): as above

Compound | IC50 [1] | IC50 [3] | inhibition in vivo at 5 mg/kg [2] | also measured
CN1CCC(c2[nH]nc(-c3cccc(C(F)(F)F)c3)c2-c2ccncc2)CC1 | 26.5 nM | 0.164 µM | 6% | –
O[C@H]1CCC[C@@H]1N1CCC(c2[nH]nc(-c3ccc(Cl)cc3)c2-c2ccncn2)CC1 | 19 nM | 3.38 µM | 70% | inhibition in vivo at 1 mg/kg [4]: 40%
CN1CCC(c2[nH]nc(-c3ccc(C(F)(F)F)cc3)c2-c2ccncc2)CC1 | 40.5 nM | 3.77 µM | 22% | –
COCCN1CCC(c2[nH]nc(-c3ccc(Cl)cc3)c2-c2ccncc2)CC1 | 70 nM | 6.72 µM | 84% | half-life [5]: 21.5 min; Activity [6]: 22%; inhibition at 10 µM [7]: 74%; CLint scaled [8]: 47.7 mL/min/kg
OCCN1CCC(c2[nH]nc(-c3ccc(Cl)cc3)c2-c2ccncc2)CC1 | 41 nM | 3.39 µM | 88% | half-life [5]: 30.5 min; Activity [6]: 70%; inhibition at 10 µM [7]: 61%; CLint scaled [8]: 32 mL/min/kg
COCC(=O)N1CCC(c2[nH]nc(-c3ccc(Cl)cc3)c2-c2ccncn2)CC1 | – | 3.25 µM | 88% | inhibition in vivo at 1 mg/kg [4]: 71%
CC(=O)N1CCC(c2[nH]nc(-c3ccc(F)cc3)c2-c2ccncc2)CC1 | – | 2.77 µM | 41% | IC50 [12]: 790 nM
Clc1ccc(-c2n[nH]c(C3CCN(C4CCOCC4)CC3)c2-c2ccncn2)cc1 | 205 nM | 9.5 µM | 46% | IC50 [11]: > 5000 nM
Clc1ccc(-c2n[nH]c(C3CCN(C4CCOC4)CC3)c2-c2ccncn2)cc1 (centres undefined) | 31 nM | 7.41 µM | 70% | IC50 [11]: 520 nM; half-life [5]: 61.3 min; Activity [6]: 50%; inhibition at 10 µM [7]: 35%; inhibition in vivo at 1 mg/kg [4]: 80%; CLint scaled [8]: 16.3 mL/min/kg
CC(C)(O)CN1CCC(c2[nH]nc(-c3ccc(Cl)cc3)c2-c2ccncn2)CC1 | 88 nM | 9.78 µM | 34% | IC50 [11]: 1000 nM; inhibition in vivo at 1 mg/kg [4]: 3%
Fc1ccc(-c2n[nH]c(C3CCCNC3)c2-c2ccncc2)cc1 (centres undefined) | 48.3 nM | 0.404 µM | – | Ratio IC50 [10]: 6
Clc1ccc(-c2n[nH]c(C3CCN(Cc4ccncc4)CC3)c2-c2ccncn2)cc1 | 47 nM | 3.29 µM | 27% | –
O=C(CO)N1CCC(c2n[nH]c(-c3ccc(Cl)cc3)c2-c2ccncn2)CC1 [SD-0006] | – | 3.45 µM | 87% | half-life [13]: 269 min; half-life [5]: > 120 min; Activity [6]: 16%; inhibition at 10 µM [7]: 16%; bioavailability [14]: > 80%; inhibition in vivo at 1 mg/kg [4]: 81%; half-life [15]: 243 min; Vd [16]: 1.74 L/kg; clearance [17]: 4.96 mL/min/kg; Vd [18]: 1.07 L/kg; clearance [19]: 2.92 mL/min/kg; CLint scaled [8]: < 8 mL/min/kg; bioavailability [20]: > 80%
OCCN1CCC(c2[nH]nc(-c3ccc(Cl)cc3)c2-c2ccncn2)CC1 | 35 nM | 2.54 µM | 88% | IC50 [11]: 490 nM; half-life [5]: 47.6 min; Activity [6]: 61%; inhibition at 10 µM [7]: 46%; inhibition in vivo at 1 mg/kg [4]: 80%; CLint scaled [8]: 21.4 mL/min/kg
O=C(CO)N1CCC(c2[nH]nc(-c3ccc(Cl)cc3)c2-c2ccncc2)CC1 | – | 1.79 µM | 85% | half-life [5]: 62 min; Activity [6]: 60%; inhibition at 10 µM [7]: 24%; CLint scaled [8]: 15.8 mL/min/kg
CC(C)(CO)N1CCC(c2[nH]nc(-c3ccc(Cl)cc3)c2-c2ccncn2)CC1 | 184 nM | 2.78 µM | 0% | –
CN1CCC(c2[nH]nc(-c3cccc(Cl)c3)c2-c2ccncc2)CC1 | – | 1.05 µM | 27% | –
CN1CCCC(c2[nH]nc(-c3ccc(F)cc3)c2-c2ccncc2)C1 (centres undefined) | 90 nM | 2.52 µM | 63% | Ratio IC50 [10]: 28
CC(=O)N1CCC(c2[nH]nc(-c3ccc(Cl)cc3)c2-c2ccncc2)CC1 | 68 nM | 3.13 µM | 66% | half-life [5]: 43.3 min; Activity [6]: 50%; CLint scaled [8]: 22.5 mL/min/kg
CC(=O)N1CCC(c2[nH]nc(-c3ccc(Cl)cc3)c2-c2ccncn2)CC1 | 152 nM | 3.71 µM | 90% | half-life [5]: 102 min; Activity [6]: 50%; inhibition in vivo at 1 mg/kg [4]: 72%; CLint scaled [8]: 9.5 mL/min/kg
CN(C)C(=O)N1CCC(c2[nH]nc(-c3ccc(Cl)cc3)c2-c2ccncn2)CC1 | 88 nM | 3.48 µM | 88% | inhibition in vivo at 1 mg/kg [4]: 53%

Further compounds by falling IC50 [3], results first:

IC50 [1] | IC50 [3] | Compound | inhibition in vivo at 5 mg/kg [2] | also measured
80 nM | 6.72 µM | CN(C)CC(=O)N1CCC(c2[nH]nc(-c3ccc(Cl)cc3)c2-c2ccncc2)CC1 | 85% | –
106 nM | 6.55 µM | COCCCN1CCC(c2[nH]nc(-c3ccc(Cl)cc3)c2-c2ccncc2)CC1 | – | –
126 nM | 4.34 µM | O=C(O)CN1CCC(c2[nH]nc(-c3ccc(Cl)cc3)c2-c2ccncc2)CC1 | 20% | –
198 nM | 4.1 µM | CS(=O)(=O)N1CCC(c2[nH]nc(-c3ccc(Cl)cc3)c2-c2ccncn2)CC1 | 89% | IC50 [11]: > 5000 nM; half-life [5]: 53.9 min; Activity [6]: 44%; inhibition in vivo at 1 mg/kg [4]: 26%; CLint scaled [8]: 18.1 mL/min/kg
70 nM | 3.53 µM | CS(=O)(=O)N1CCC(c2[nH]nc(-c3ccc(Cl)cc3)c2-c2ccncc2)CC1 | 75% | –
– | 3.45 µM | COCC(=O)N1CCC(c2[nH]nc(-c3ccc(Cl)cc3)c2-c2ccncc2)CC1 | 90% | –
99.6 nM | 3.07 µM | Cc1ccc(-c2n[nH]c(C3CCN(C)CC3)c2-c2ccncc2)cc1 | – | inhibition in vivo at 20 mg/kg [9]: 44%
31.6 nM | 2.68 µM | CN1CCC(c2[nH]nc(-c3ccc(Cl)cc3)c2-c2ccncc2)CC1 | 71% | Ratio IC50 [10]: 84
67.3 nM | 2.35 µM | Cc1cccc(-c2n[nH]c(C3CCN(C)CC3)c2-c2ccncc2)c1 | – | inhibition in vivo at 20 mg/kg [9]: 81%
– | 2.32 µM | CN1CCC(c2[nH]nc(-c3ccc(Cl)cc3)c2-c2ccncn2)CC1 | 63% | IC50 [11]: 800 nM; half-life [5]: 31.2 min; Activity [6]: 20%; inhibition at 10 µM [7]: 51%; inhibition in vivo at 1 mg/kg [4]: 36%; CLint scaled [8]: 31.5 mL/min/kg
54.7 nM | 1.96 µM | CN1CCC(c2[nH]nc(-c3ccc(F)cc3)c2-c2ccncc2)CC1 | 77% | Ratio IC50 [10]: 35
14 nM | 1.65 µM | NS(=O)(=O)N1CCC(c2[nH]nc(-c3ccc(Cl)cc3)c2-c2ccncc2)CC1 | 68% | –
25.3 nM | 0.51 µM | Fc1ccc(-c2n[nH]c(C3CCNCC3)c2-c2ccncc2)cc1 | 2% | –
